Experimental data taken from article PMC10243163, “A frog‐derived antimicrobial peptide as a potential anti‐biofilm agent in combating Staphylococcus aureus skin infection” (Journal of Cellular and Molecular Medicine, 2023).
≈ marks a conversion by molar mass, not a printed value. Positions of bridges follow the written chain, without caps; N, C: chain ends. Residues, ends and D or L forms follow the SMILES beside them.

How the values were obtained:
[1] = tested on: Gram‐positive and Gram‐negative test bacteria; type: cell-based; conditions: geometric mean of MICs against the three Gram‐negative strains
K. pneumoniae ATCC 43816 [2] = type: cell-based, Klebsiella pneumoniae; conditions: ATCC 43816, 24 h
Description: (§1) Peptide solutions were first mixed with bacterial cultures (5 × 10^5 CFU/mL) and incubated at 37°C for 24 h. The planktonic bacterial cells were gently removed by washing with PBS the next day, and methanol was utilised to fix the biofilm. Crystal violet (0.1% v/v), PBS and acetic acid (30%, v/v) were subsequently used to stain biofilm, remove remaining stains and re‐dissolve stains, respectively. The absorbance was determined at 595 nm. The experiments were conducted in three independent runs.

[3] = tested on: Gram‐positive and Gram‐negative test bacteria; type: cell-based
Description: (§2) Antimicrobial assays were conducted using standard broth micro‐dilutions, as mentioned previously.[11] Gram‐positive bacteria S. aureus (ATCC 6538), Methicillin‐resistant S. aureus (MRSA; NCTC 12493), […] (NCTC 12697), Gram‐negative bacteria Escherichia coli (ATCC 8739), Klebsiella pneumoniae (ATCC 43816), Pseudomonas aeruginosa (ATCC 9027), Acinetobacter baumannii (ATCC BAA 747), and yeast, Candida albicans (ATCC 10231) were used in the test. The experiments were conducted in three independent runs.

horse erythrocytes = experiment: Haemolytic activity; type: cell-based; conditions: 128 μM peptide; horse erythrocytes 2% v/v, 37°C, 2 h; 0.1% Triton X‐100 positive control; absorbance 570 nm; three independent runs
Description: The haemolytic activity of peptides was conducted using horse erythrocytes (2%, v/v). Peptide solutions were mixed with washed horse erythrocyte suspension at 37°C for 2 h. Triton X‐100 (0.1%) was used as a positive control. The mixture was then centrifuged at 930 g for 5 min. The absorbance of the supernatants was detected at 570 nm. The haemolysis rate was calculated using the formula: Haemolysis%=Sample group−negative group/positive group−negative group×100%.
This experiment was performed in three independent runs.

K. pneumoniae ATCC 43816 [4] = type: cell-based, Klebsiella pneumoniae; conditions: ATCC 43816, 24 h; remark: listed apart in the source
Description: (§3) The bacterial culture (5 × 10^5 CFU/mL) was cultured in a sterile 96‐well plate for 24 h to generate mature biofilms. The planktonic bacteria were removed by washing three times with sterile PBS buffer. Then, fresh broth with different peptide concentrations was added to each well and further incubated for another 24 h. Then, the plate was stained with crystal violet. The stain was solubilised in 30% acetic acid, and the absorbance was measured at 595 nm. The experiments were conducted in three independent runs.

MRSA NCTC 12493 [5] = type: cell-based, Methicillin‐resistant S. aureus; conditions: NCTC 12493, 24 h
Description: as §3

MRSA NCTC 12493 [6] = type: cell-based, Methicillin‐resistant S. aureus; conditions: NCTC 12493, 24 h; remark: listed apart in the source
Description: as §1

C. albicans ATCC 10231 = type: cell-based, Candida albicans
Description: as §2

E. faecalis NCTC 12697 [7] = type: cell-based; conditions: NCTC 12697, 24 h
Description: as §1

P. aeruginosa ATCC 9027 [8] = type: cell-based, Pseudomonas aeruginosa
Description: as §2

E. coli ATCC 8739 [9] = type: cell-based, Escherichia coli
Description: as §2

K. pneumoniae ATCC 43816 [10] = type: cell-based, Klebsiella pneumoniae
Description: as §2

E. faecalis NCTC 12697 [11] = type: cell-based
E. faecalis NCTC 12697 [12] = type: cell-based; conditions: NCTC 12697, 24 h; remark: listed apart in the source
Description: as §3

S. aureus ATCC 6538 [13] = type: cell-based, Staphylococcus aureus; conditions: ATCC 6538, 24 h
Description: as §1

P. aeruginosa ATCC 9027 [14] = type: cell-based, Pseudomonas aeruginosa; conditions: ATCC 9027, 24 h
Description: as §1

S. aureus ATCC 6538 [15] = type: cell-based, Staphylococcus aureus
Description: as §2

E. coli ATCC 8739 [16] = type: cell-based, Escherichia coli; conditions: ATCC 8739, 24 h
Description: as §3

S. aureus ATCC 6538 [17] = type: cell-based, Staphylococcus aureus; conditions: ATCC 6538, 24 h; remark: listed apart in the source
Description: as §3

MRSA NCTC 12493 [18] = type: cell-based, Methicillin‐resistant S. aureus
Description: as §2

P. aeruginosa ATCC 9027 [19] = type: cell-based, Pseudomonas aeruginosa; conditions: ATCC 9027, 24 h; remark: listed apart in the source
Description: as §3

E. coli ATCC 8739 [20] = type: cell-based, Escherichia coli; conditions: ATCC 8739, 24 h; remark: listed apart in the source
Description: as §1

SMILES: CC[C@H](C)[C@@H]1NC(=O)[C@H](CCCCN)NC(=O)[C@@H](NC(=O)[C@H](CC(C)C)NC(=O)[C@@H](NC(=O)[C@H](CCCCN)NC(=O)[C@@H]2CCCN2C(=O)[C@H](CC(C)C)NC(=O)[C@H](Cc2ccccc2)NC(=O)[C@H](CC(N)=O)NC(=O)[C@H](C)NC(=O)[C@H](C)NC(=O)[C@H](CC(C)C)NC(=O)CNC(=O)[C@H](C)NC(=O)[C@@H](NC(=O)[C@H](CC(C)C)NC(=O)[C@@H]2CCCN2C(=O)[C@@H](N)Cc2ccccc2)[C@@H](C)CC)[C@@H](C)CC)CSSC[C@@H](C(=O)O)NC(=O)[C@H](CCCCN)NC(=O)[C@H](CCCNC(=N)N)NC(=O)[C@H](C)NC1=O [OG9] (H-FPLIAGLAANFLPKILCKIARKC-OH; disulfide 17-23)
- GM MIC, G− [1]: 16 µM
- MBIC (K. pneumoniae ATCC 43816 [2]): >128/>128 μM
- GM MIC, total bacteria ([3]; geometric mean of MICs against all test bacteria): 12.7 µM
- GM MIC, G+ ([3]; geometric mean of MICs against the three Gram‐positive strains): 10.1 µM
- Haemolysis (horse erythrocytes): around 85%
- MBEC (K. pneumoniae ATCC 43816 [4]): >128/>128 μM
- MBEC (MRSA NCTC 12493 [5]): > 128 µM
- MBIC (MRSA NCTC 12493 [6]): 16 µM
- MBC (C. albicans ATCC 10231): > 128 µM
- MIC (C. albicans ATCC 10231): > 128 µM
- MBIC (E. faecalis NCTC 12697 [7]): 32 µM
- MBC (P. aeruginosa ATCC 9027 [8]): 16 µM (≈ 40 µg/mL)
- MIC (P. aeruginosa ATCC 9027 [8]): 16 µM (≈ 40 µg/mL)
- MBC (E. coli ATCC 8739 [9]): 4 µM (≈ 10 µg/mL)
- MIC (E. coli ATCC 8739 [9]): 4 µM (≈ 10 µg/mL)
- MBC (K. pneumoniae ATCC 43816 [10]): 64 µM (≈ 160 µg/mL)
- MIC (K. pneumoniae ATCC 43816 [10]): 64 µM (≈ 160 µg/mL)
- MBC (E. faecalis NCTC 12697 [11]): 16 µM (≈ 40 µg/mL)
- MIC (E. faecalis NCTC 12697 [11]): 16 µM (≈ 40 µg/mL)
- MBEC (E. faecalis NCTC 12697 [12]): > 128 µM
- MBIC (S. aureus ATCC 6538 [13]): 16 µM
- MBIC (P. aeruginosa ATCC 9027 [14]): >128/>128 μM
- MBC (S. aureus ATCC 6538 [15]): 8 µM (≈ 20 µg/mL)
- MIC (S. aureus ATCC 6538 [15]): 4 µM (≈ 10 µg/mL)
- MBEC (E. coli ATCC 8739 [16]): > 128 µM
- MBEC (S. aureus ATCC 6538 [17]): > 128 µM
- MBC (MRSA NCTC 12493 [18]): 32 µM (≈ 80 µg/mL)
- MIC (MRSA NCTC 12493 [18]): 16 µM (≈ 40 µg/mL)
- MBEC (P. aeruginosa ATCC 9027 [19]): >128/>128 μM
- MBIC (E. coli ATCC 8739 [20]): 32 µM
